Test results taken from the METLIN SMRT retention time set (Domingo-Almenara et al. 2019).

Assay: gradient 5% acetonitrile 3 min, to 50% in 2 min, to 85% in 15 min, held 3 min, 100 µL/min
Conditions: column: Zorbax Extend-C18 2.1 x 50 mm; eluents: water / acetonitrile, 0.1% formic acid
Procedure, shortened: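 Each retention time is based on an adduct peak selected computationally and verified by manual inspection. Measurements used HPLC–quadrupole time-of-flight mass spectrometry in positive and negative ionization mode on mixtures of ~100 pure standards. Chromatography ran on a Zorbax Extend-C18 column (2.1 × 50 mm, 1.8 μm) at 100 μL/min with water and acetonitrile, each containing 0.1% formic acid, and dead and dwell volumes of 40 μL and 900 μL.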

SMILES	RP-LC retention time [s]
O=C(NCC1CCCCC1)C1CCN(c2cncnc2N2CCOCC2)CC1	644
CC(C)OCCCNC(=O)C1CCCN(S(=O)(=O)c2ccc3c(ccn3C)c2)C1 (centres undefined)	720
Cn1cc(CN2CCCC(COc3ccccc3C(=O)N3CCOCC3)C2)c2ccccc21 (centres undefined)	664
O=C(NCC1CCOCC1)c1n[nH]c2ccccc12	654
O=C(C1CCCN(S(=O)(=O)N2CCOCC2)C1)N1CCN(c2ccc(F)cc2)CC1 (centres undefined)	807
O=C(N/N=C/c1ccc([N+](=O)[O-])o1)c1ccc(O)cc1	675
O=c1n(Cc2cccc(Br)c2)nc2c(S(=O)(=O)N3CCCCCC3)cccn12	1010
CCc1noc2nc(C)n(CC(=O)NCCc3ccc(C)cc3)c(=O)c12	851
Cc1oc(-c2[nH]ncc2C(=O)N2CCCCC2)cc1S(=O)(=O)NCc1ccncc1	575
O=S(=O)(c1cc(F)cc(F)c1)N1CCCC(Cn2c(C3CC3)nc3cccnc32)C1 (centres undefined)	806
Cc1ccccc1N1CCN(C(=O)c2csc(C(=O)NC3CC3)n2)CC1	884
CC1CCCN(C(=O)c2cc3c(s2)CCN(C(=O)c2ccccc2)C3)C1 (centres undefined)	589
O=C(NCCCn1cccc1)c1ccno1	644
O=C(NCc1cc(F)cc(F)c1)c1cn2c(n1)CCCC2	599
CCCn1cc(C(=O)NCC(=O)OCC)c(S(=O)(=O)N2CCN(c3ccc(Cl)cc3)CC2)n1	1040
CCCCC(=O)Nc1nc(-c2ccc3c(c2)NC(=O)C(C)O3)cs1 (centres undefined)	863
CCc1ccc(-c2nc(-c3ccc4oc(C)nc4c3)no2)cc1	1280
CN1C(=O)c2cccn2CC1CNC(=O)c1nccn1C (centres undefined)	573
Cc1cc(C2CCCN2C(=O)Nc2ccc(C)c(F)c2)on1 (centres undefined)	822

SMILES	RP-LC retention time [s]
Cc1ccc(/C=C/S(=O)(=O)N2CCN(c3ccc(-c4cccs4)nn3)CC2)cc1	929
CC(C)c1ccc(CN2CC(c3nc(CCN(C)S(C)(=O)=O)no3)C2)cc1	664
CC(C)(C)CC(C)(C)NCC(O)COC(C)(C)C (centres undefined)	588
O=C(COc1ccc(F)cc1)N1CCN(c2nc(CN3CCCCC3)cs2)CC1	655
COc1ccc(NC(=O)CSc2nc3c(cc2C#N)C(=O)CC(C)(C)C3)c(OC)c1	892
CCCCNC(=O)Cc1nnc(-c2ccc(OC)cc2)o1	736
CC(=O)N1c2ccc(S(=O)(=O)N3CCCC3)cc2CC1C(=O)NCCc1ccc(C)cc1 (centres undefined)	797
O=C1NCCCCCCN(Cc2ccc(C(F)(F)F)cc2)[C@H]2CCC[C@@H]12	700
CCS(=O)(=O)N1CC(=O)N(c2cc(C)ccc2C)C(C)(C(=O)NC2CCCC2)C1 (centres undefined)	834
CCOC(=O)c1c(CN2CCN(CC#N)CC2)n(C)c2cc(Br)c(OC(C)=O)cc12	706
C=CCNC(=O)c1cnn(-c2ccc(-c3nc(C)no3)cn2)c1C	750
O=C(CCCn1c(=O)c2cccn2c2ccc(Br)cc21)NCc1ccc2c(c1)OCO2	915
CCn1c(C(=O)N2CCN(c3cccc(OC)c3)CC2)cc2sccc21	1050
Cc1cnc(C(=O)NCC23CCC=C2N(C)C(=O)CC3)cn1 (centres undefined)	666
CCOC(=O)C1CCN(C(=O)C2CCCN(c3ncnc4c3nc3n4CCCCC3)C2)CC1 (centres undefined)	726
COc1ccc(C(=O)N2CCC3(CC2)NCc2ccccc2-n2ccnc23)cc1OC	594
O=C(c1cn(-c2cc(N3CCCCC3)ncn2)cn1)N1CCSCC1	789
CN(C)C(=O)c1csc(S(=O)(=O)N2CCC(C(=O)NC3CCCC3)CC2)c1	696
Cc1noc([C@@H]2CN(C(=O)c3cn[nH]c3)C[C@H]2C(N)=O)n1	536

Second part, the compound after the results:

RP-LC retention time [s]	SMILES
871	CCC(=O)N(CC(=O)N1CCc2sccc2C1COc1ccccc1OC)C1CC1 (centres undefined)
627	O=C(NCc1ccccn1)C1CC(=O)N(CCc2c[nH]c3ccc(Cl)cc23)C1 (centres undefined)
602	O=C(c1ccc(CS(=O)c2cccc(Cl)c2)o1)N1CCN(c2ccccn2)CC1 (centres undefined)
971	O=C(NCCc1ccc(Cl)cc1)C(=O)Nc1ccc(F)cc1F
888	Cc1noc(-c2cc(=O)n(CC(=O)NCc3ccc(Cl)cc3)c3ccccc23)n1
669	COc1cccc(CNC(=O)Cc2cn(C)c3ncccc23)c1OC
772	CC(Oc1ccc(=O)n(-c2ccc(F)cc2)n1)C(=O)Nc1ccccc1F (centres undefined)
736	O=C(c1ccc(F)cc1F)N1CCN(c2cc(-c3ccc(F)cc3)[nH]n2)CC1
1020	Cc1ccc(-n2ccc(=O)c(-c3nc(-c4ccccc4Br)no3)n2)cc1C
785	O=c1n(Cc2ccc(F)cc2)nc2ccc(S(=O)(=O)N3CCOCC3)cn12
722	Cc1ncoc1C(=O)N1CC(n2cc(COc3ccc(F)cc3)nn2)C1
1200	O=S(=O)(c1ccc(-c2noc(-c3ccccc3Cl)n2)cc1)N1CCCC1
832	COCCNC(=O)C1CCN(c2nc3ccc(-c4ccccc4)nc3s2)CC1
661	Cc1cc(=O)n(CC(=O)Nc2ccccc2Cl)c(N2CCCC2)n1
815	COc1ccccc1C1(CNC(=O)Cc2cn(C)c3ccccc23)CCOCC1
752	CCOC(=O)c1ccc(NC(=O)CCc2c(-c3ccc(Cl)cc3)nc3ccccn23)cc1
703	Cc1cc2nn(CC(=O)Nc3ccccc3)c(=O)n2c(N2CCCC2)n1
647	O=C(Cc1c[nH]c2ncccc12)NCc1cccc(Br)c1
919	COc1cc(Nc2ncc3c(n2)-c2ccc(Cl)cc2C(c2c(F)cccc2OC)=NC3)ccc1C(=O)O
648	CCOc1ccc(C(=O)NCC(=O)Nc2nc3ccccc3[nH]2)cc1
618	CCN1CCN(C(=O)c2ccc3ccnc(N4CCN(c5ccc(Cl)cc5)CC4)c3c2)CC1
657	O=C(Nc1ccc(F)c(Cl)c1)NC1CCCN(c2cc(-c3ccncc3)[nH]n2)C1 (centres undefined)
779	CC1(C(=O)NCc2ccccc2)CN(S(C)(=O)=O)CC(=O)N1Cc1ccc(F)cc1 (centres undefined)
637	Cc1ccccc1NC(=O)CSc1ccc(N2CCCC(C(=O)NC3CC3)C2)nn1 (centres undefined)
639	COc1ccccc1C(=O)N1c2ccccc2NC(=O)CC1C (centres undefined)
910	Cc1cccc(S(=O)(=O)N2CCC3(C2)C(=O)N(C)c2ccccc23)c1 (centres undefined)

RP-LC retention time [s]	SMILES
1060	CCN1C(=O)c2cc(S(=O)(=O)NCc3ccc(F)cc3)ccc2Oc2cccnc21
848	Cc1ccc(Nc2c(-c3ccc(N4CCOCC4)cc3)nc3cnccn23)cc1
1080	COc1ccc(C(=O)Nc2nc3c(s2)CCc2cc(OC)ccc2-3)cc1
844	CCc1cccc(C)c1NC(=O)Cn1c(=O)c(CCC(=O)NC2CCCC2)nc2ccccc21
935	CCOc1ccc(NC(=O)Nc2nccn(-c3ccccc3OC)c2=O)cc1
1180	COc1ccccc1NC(=O)c1oc2ccccc2c1NC(=O)Cc1ccc(F)cc1
714	CCOc1ccc(NC(=O)c2cc(=O)c3cc(Cl)c(C)cc3o2)c2cccnc12
876	O=C(NCCc1ccccc1)NC(c1ccccc1)c1nnc(-c2ccccc2)o1 (centres undefined)
1140	Cc1ccc(C(=O)N2CCN(c3nc4ccccc4n(CC(C)C)c3=O)CC2)s1
651	Cc1c(CC(=O)NC2CC2)c(=O)n2nc(-c3ccccc3)nc2n1C
967	Cc1nc(-c2ccccc2)cc2nn(CC(=O)Nc3ccc(F)cc3Cl)c(=O)n12
849	COc1ccc(-n2c(=O)n(C)c(=O)c3cc(C(=O)Nc4ccccc4C)cnc32)cc1
848	CCn1ncn2cc(S(=O)(=O)Nc3ccc(F)cc3)cc2c1=O
792	O=C(c1ccc2ccnc(N3CCN(c4ccc(F)cc4)CC3)c2c1)N1CCCCC1
644	O=C1CCCc2c1cc(C(=O)NCc1cccnc1)c(=O)n2-c1ccc(C(F)(F)F)cc1
633	O=C1NCCCn2cc(S(=O)(=O)Nc3ccccc3F)cc21
810	Cc1nc(-c2noc(-c3ccccc3)n2)cn1CC(=O)NCc1ccccc1
814	CC1(C)CC(=O)c2cn(-c3ccc(F)cc3)c(=O)c(C(=O)NC3CC3)c2C1
625	Cc1ccc(-c2nc3ccccc3[nH]2)cc1NC(=O)c1ccco1
1020	O=c1c2ccccc2c(-c2nc(-c3ccncc3)no2)cn1-c1cccc(Cl)c1
883	Cc1ccc(F)cc1S(=O)(=O)N1CCC(N2CCN(Cc3ccccc3)C(=O)C2=O)CC1
888	CCOC(=O)c1nc(Nc2ccc(OC(C)C)cc2)c2ccccc2n1
1080	COc1ccc(-n2nnc(-c3nsc(Nc4cccc(Cl)c4)n3)c2C)cc1
546	O=C(Cn1ccc2ccccc21)NCCn1nc(-n2ccnc2)ccc1=O
1000	CCC(C)NC(=O)c1c2c(cn(-c3ccc(C)cc3)c1=O)C(=O)CC(C)(C)C2 (centres undefined)
